Source: patent publication US11655225B2, “Antimycobacterial heterocyclic amides” (Crestone, Inc., priority 2018, dated 2023)
Values after ≈ are worked out from the molar mass of the structure shown.

System: isoniazid-, rifampin-, and fluoroquinolone-resistant M. tuberculosis
Test: microbe, parasite or virus in culture
Type: cell-based
Settings: for MIC: Mycobacterium tuberculosis; for activity against resistant strains: isoniazid-, rifampin-, and fluoroquinolone-resistant M. tuberculosis

Row | Structure (SMILES) | MIC | activity against resistant strains
1 | CC12CCCC(C(=O)Nc3nc4cc(Cl)cc(Cl)c4s3)(CCC1)C2 [Example 2, N-(5,7-dichloro-1,3-benzothiazol-2-yl)-5-methylbicyclo[3.3.1]nonane-1-carboxamide] | 0.03 to 4 µg/mL (≈ 0.0783 to 10.4 µM) | active
2 | CC12CCCC(C(=O)Nc3nc4ccc(OC(F)(F)F)cc4s3)(CCC1)C2 [Example 5, 5-methyl-N-[6-(trifluoromethoxy)-1,3-benzothiazol-2-yl]bicyclo[3.3.1]nonane-1-carboxamide] | 0.03 to 4 µg/mL (≈ 0.0753 to 10 µM) | active
3 | CC12CC3CC(C)(C1)CC(C(=O)Nc1nc4ccc(OC(F)(F)F)cc4s1)(C3)C2 [Example 45, 3,5-dimethyl-N-[6-(trifluoromethoxy)-1,3-benzothiazol-2-yl]adamantane-1-carboxamide] | 0.03 to 4 µg/mL (≈ 0.0707 to 9.42 µM) | active
4 | CC1CC(C(=O)Nc2nc3ccc(OC(F)(F)F)cc3s2)CC(C)(C)C1 (stereo not shown) [Example 46, 3,3,5-trimethyl-N-[6-(trifluoromethoxy)-1,3-benzothiazol-2-yl]cyclohexane-1-carboxamide] | 0.03 to 4 µg/mL (≈ 0.0776 to 10.4 µM) | active
5 | CC1CC(C(=O)Nc2nc3c(F)cc(F)cc3s2)CC(C)(C)C1 (stereo not shown) [Example 80, N-(4,6-difluoro-1,3-benzothiazol-2-yl)-3,3,5-trimethylcyclohexane-1-carboxamide] | 0.03 to 4 µg/mL (≈ 0.0886 to 11.8 µM) | active
